Assays:
PI3Kβ = PI3Kβ (Homo sapiens, UniProt P42338); experiment: PI3K biochemical assay, PI3Kβ
Protocol: PI3Kα activity is measured as the percent of ATP consumed following the kinase reaction using luciferase-luciferin-coupled chemiluminescence. Reactions were conducted in 384-well white, medium binding microtiter plates (Greiner). Kinase reactions were initiated by combining test compounds, ATP, substrate (PIP2), and kinase in a 20 μL volume in a buffer solution. The standard PI3Kalpha assay buffer is composed 50 mM Tris, pH 7.5, 1 mM EGTA, 10 mM MgCl2, 1 mM DTT and 0.03% CHAPS. The standard assay concentrations for enzyme, ATP, and substrate are 1.5 nM, 1 μM, and 10 μM, respectively. The reaction mixture was incubated at ambient temperature for approximately 2 h. Following the kinase reaction, a 10 μL aliquot of luciferase-luciferin mix (Promega Kinase-Glo) was added and the chemiluminescence signal measured using a Victor2 plate reader (Perkin Elmer). […] Substituting PI3Kα with PI3Kβ, PI3Kγ, or PI3Kδ, the inhibitory activity of the compounds for the other isoforms of I3K were measured.

[1] = system: PC3 (PTEN null) cellular model; experiment: pAKT (T308) ELISA assay, PC3; format: cell-based; conditions: Homo sapiens; IGF1 stimulation
Protocol: (§1) Cells were incubated at 37° C., 5% CO2 for 48 h (except MDA-MB-453 cells which were cultured in the absence of CO2). Compounds were serially diluted in DMSO and subsequently diluted in serum-free DMEM. Test compounds were added to cells in serum-free DMEM at a final concentration of 0.3% DMSO and incubated for 3 h. Cells were lysed with 130 μL of ice-cold RIPA lysis buffer (50 mM Tris-HCl, pH 7.5; 0.5% sodium deoxycholic acid; 1% Triton X-100; 0.1% SDS; 150 mM NaCl) with protease and phosphatase inhibitors (1 mM EDTA, 1 mM NaF, 20 mM β-glycerophosphate, 1 mM Na-orthovanadate, Complete-Mini EDTA-free, Roche, 11836170001, and Phosphatase Inhibitor Cocktail I, Sigma, P2850), directly in 96-well plates. Cells were lysed on ice for 60-120 min at 4° C. The supernatants were added directly to capture ELISA plates previously pre-coated with rabbit anti-AKT capture antibody. ELISA assays for pAKT(T308) and total AKT were performed with the pAKT(T308) ELISA kit (Cell Signaling Technology, 7144) and AKT1 ELISA kit (Cell Signaling Technology, 7142). For the pAKT(T308) ELISA, 85 μL of cell lysate was added to each well. For the total AKT1 ELISA, 15 μL of cell lysate and 85 μL of Starting Block buffer (Pierce, 37543) were added to each well.

[2] = system: NCI-H460 (PI3K-E545K/KRAS-Q61H); experiment: pAKT (T308) ELISA assay, NCI-H460; format: cell-based; conditions: Homo sapiens, PI3KαE545K, read-out: Cellular pAKT (T308) IC50 NCI-H460
Protocol: (§2) In another embodiment, the pAKT ELISA Assay was performed by seeding cells onto 96-well plates (Corning, 3904) in their respective growth media at the densities listed in Table 3. Cells were incubated at 37° C., 5% CO2 for 48 h (except MDA-MB-453 cells which were cultured in the absence of CO2). Compounds were serially diluted in DMSO and subsequently diluted in serum-free DMEM. Test compounds were added to cells in serum-free DMEM at a final concentration of 0.3% DMSO and incubated for 3 h. Cells were lysed with 130 μL of ice-cold RIPA lysis buffer (50 mM Tris-HCl, pH 7.5; 0.5% sodium deoxycholic acid; 1% Triton X-100; 0.1% SDS; 150 mM NaCl) with protease and phosphatase inhibitors (1 mM EDTA, 1 mM NaF, 20 mM β-glycerophosphate, 1 mM Na-orthovanadate, Complete-Mini EDTA-free, Roche, 11836170001, and Phosphatase Inhibitor Cocktail I, Sigma, P2850), directly in 96-well plates. Cells were lysed on ice for 60-120 min at 4° C. The supernatants were added directly to capture ELISA plates previously pre-coated with rabbit anti-AKT capture antibody. […] The wells were measured for luminescence using a Wallac plate reader at wavelength of 560 nm. After normalization of pAKT signal to total AKT1 signal, IC50 values were determined relative to the DMSO-treated control.

HCT 116 (PI3Kα H1047R) = experiment: pAKT (T308) ELISA assay, HCT 116; format: cell-based; conditions: Homo sapiens, PI3KαH1047R, IGF1, read-out: Cellular pAKT (T308) IC50 HCT 116
Protocol: as §2

SK-OV-3 (PI3Kα H1047R) = experiment: pAKT (T308) ELISA assay, SK-OV-3; format: cell-based; conditions: Homo sapiens, PI3KαH1047R, IGF1, read-out: Cellular pAKT (T308) IC50 SK-OV-3
Protocol: as §2

[3] = system: SK-BR-3 (PI3Kα wild-type); experiment: pAKT (T308) ELISA assay, SK-BR-3; format: cell-based; conditions: Homo sapiens, PI3Kαwt, hereg, read-out: Cellular pAKT (T308) IC50 SK-BR-3
Protocol: as §2

PI3Kα-mutated models = experiment: Growth factor induced AKT phosphorylation compared across PI3Kα-mutated models; format: cell-based; conditions: cell lines of Table 6
Protocol: as §1
Cells were incubated at 37° C., 5% CO2 for 48 h (except MDA-MB-453 cells which were cultured in the absence of CO2). […]

Chain of PI3Kβ (P42338 whole entry): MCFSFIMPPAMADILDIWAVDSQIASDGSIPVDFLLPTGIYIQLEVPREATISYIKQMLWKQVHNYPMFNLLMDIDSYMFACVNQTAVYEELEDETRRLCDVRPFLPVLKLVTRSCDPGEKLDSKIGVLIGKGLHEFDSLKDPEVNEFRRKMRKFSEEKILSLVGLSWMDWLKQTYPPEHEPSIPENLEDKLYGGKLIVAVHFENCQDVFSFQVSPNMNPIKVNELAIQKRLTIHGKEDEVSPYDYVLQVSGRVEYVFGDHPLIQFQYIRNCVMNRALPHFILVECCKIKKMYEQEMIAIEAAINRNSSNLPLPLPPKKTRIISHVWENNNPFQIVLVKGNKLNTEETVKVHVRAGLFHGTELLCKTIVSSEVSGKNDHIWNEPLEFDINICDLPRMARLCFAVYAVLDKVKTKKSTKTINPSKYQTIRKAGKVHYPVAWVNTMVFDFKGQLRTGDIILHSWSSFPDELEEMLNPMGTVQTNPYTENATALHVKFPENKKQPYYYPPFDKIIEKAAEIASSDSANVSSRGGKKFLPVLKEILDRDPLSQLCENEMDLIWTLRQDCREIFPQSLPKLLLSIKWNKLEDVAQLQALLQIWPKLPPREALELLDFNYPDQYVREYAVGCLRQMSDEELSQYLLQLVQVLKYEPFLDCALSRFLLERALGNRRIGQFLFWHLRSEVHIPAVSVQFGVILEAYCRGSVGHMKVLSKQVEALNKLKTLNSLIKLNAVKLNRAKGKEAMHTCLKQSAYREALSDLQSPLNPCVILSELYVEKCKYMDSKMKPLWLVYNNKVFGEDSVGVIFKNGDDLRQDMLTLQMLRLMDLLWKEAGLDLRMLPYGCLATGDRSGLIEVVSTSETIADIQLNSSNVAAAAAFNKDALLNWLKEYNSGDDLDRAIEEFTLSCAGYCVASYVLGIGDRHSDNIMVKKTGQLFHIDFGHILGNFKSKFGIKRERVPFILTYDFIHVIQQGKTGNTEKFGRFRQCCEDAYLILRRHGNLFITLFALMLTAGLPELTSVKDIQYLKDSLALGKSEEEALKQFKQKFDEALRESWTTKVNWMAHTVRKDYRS
Chain of PI3Kβ (P27986 whole entry partner): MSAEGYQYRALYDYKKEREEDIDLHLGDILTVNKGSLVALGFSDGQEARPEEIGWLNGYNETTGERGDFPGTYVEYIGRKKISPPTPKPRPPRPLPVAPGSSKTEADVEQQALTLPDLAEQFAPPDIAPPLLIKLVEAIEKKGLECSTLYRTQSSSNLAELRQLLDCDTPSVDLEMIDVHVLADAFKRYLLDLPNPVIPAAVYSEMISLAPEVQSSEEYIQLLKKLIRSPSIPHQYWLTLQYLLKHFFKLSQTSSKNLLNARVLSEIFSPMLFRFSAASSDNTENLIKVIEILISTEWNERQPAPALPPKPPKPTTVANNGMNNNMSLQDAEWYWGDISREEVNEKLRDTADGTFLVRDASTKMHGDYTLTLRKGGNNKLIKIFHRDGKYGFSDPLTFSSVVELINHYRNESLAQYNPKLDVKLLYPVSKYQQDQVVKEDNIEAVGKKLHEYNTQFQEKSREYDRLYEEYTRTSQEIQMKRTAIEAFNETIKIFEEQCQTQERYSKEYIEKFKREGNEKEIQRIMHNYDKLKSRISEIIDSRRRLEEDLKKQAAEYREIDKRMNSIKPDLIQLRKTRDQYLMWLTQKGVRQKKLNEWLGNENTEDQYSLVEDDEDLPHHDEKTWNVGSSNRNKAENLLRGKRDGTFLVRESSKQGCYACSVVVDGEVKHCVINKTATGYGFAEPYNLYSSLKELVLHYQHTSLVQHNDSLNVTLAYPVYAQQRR

Cc1cc(C(C)Nc2ccccc2)c2nc(N3CCOCC3)cc(=O)n2c1 (stereo not shown) [TGX-221, 7-methyl-2-(4-morpholinyl)-9-[1-(phenylamino)ethyl]-4H-pyrido[1,2-a]pyrimidin-4-one]
activity against PI3Kβ (in words) (PI3Kβ): active | IC50 [1]: 11.2 µM | IC50 [2]: > 30 µM | IC50 (HCT 116 (PI3Kα H1047R)): 26.4 µM | IC50 (SK-OV-3 (PI3Kα H1047R)): > 30 µM | IC50 [3]: > 30 µM | effect on PI3Kα mediated activity in these cell models (PI3Kα-mutated models): no effect

— patent US20140066431A1, “Benzoxazepines as Inhibitors of PI3K/mTOR and Methods of Their Use and Manufacture” (Exelixis, Inc., priority 2010, published 2014)
